# Where two headings read alike, the source gives them in different places.
# Tested on: Tax-iIEC-KO mice
# Conditions: for concentration of betaine in the liver / concentration of choline in the liver: compared with control mice
# Description: Atp8b1^flox/flox mice were mated with villin-Cre/ERT2 transgenic mice (Stock No. 020282; The Jackson Laboratory), and Atp8b1^flox/+; villin-Cre/ERT2 mice in the obtained offsprings were then mated with Atp8b1^flox/flox mice to obtain Tamoxifen-induced, intestinal epithelial cell (IEC)-specific Atp8b1 knockout (Atp8b1Tax-iIEC-KO: Atp8b1^flox/flox; villin-Cre/ERT2) mice (Atp8b1 Tax-iIEC-KO mice). The resulting Atp8b1 Tax-iIEC-KO mice and littermate Atp8b1^flox/flox mice were used for animal experiments.
# ALT and AST were determined by automatic measurement with Dri-chem (FUJIFILM, Tokyo, Japan).
# The liver was cut into small pieces, was then fixed with 10% neutral buffered formalin, and was then embedded in paraffin. The small intestine was rinsed with PBS, was fixed with 10% neutral buffered formalin, was then cut into 2 segments (corresponding to the proximal side and the distal side), and was then opened longitudinally. The thus cut small intestine was opened with a toothpick, was immobilized with a pathological pin, was then fixed with 10% neutral buffered formalin, and was then embedded in paraffin. Paraffin sections (3 μm each) were prepared, and were then deparaffinized and rehydrated. Thereafter, the resulting paraffin sections were stained with hemotoxylin and eosin, and were then mounted in Entellan new (Merck, Branchburg, NJ).
# The concentrations of choline, betaine, dimethylglycine (N,N-dimethylglycine) and glycerophosphorylcholine (sn-glycero-3-phosphocholine) in plasma were determined by liquid chromatography/tandem mass spectrometry (LC/MS/MS) assay. The sample was mixed with 98-fold volume of ethanol and 1-fold volume of the internal standard (IS) solution (10 μmol/L choline in water, 10 μmol/L glycerophosphorylcholine in water, and 1 μmol/L betaine in water). After vortex mixing, the sample was centrifuged at 21,500×g at 4° C. for 5 minutes. The obtained supernatant was injected into a UHPLC Nexera liquid chromatography system (Shimadzu co., Kyoto, Japan) equipped with an Ascentis Express HILIC column (2.1×50 mm, 2.7 μm, Merck KGaA, Darmstadt, Germany), and was then maintained at 4° C. The analyte was separated from the internal standard by gradient elution of mobile phase A (10 mmol/L ammonium acetate in water) and of mobile phase B (acetonitrile/water mixture) (99:1, v/v)). The gradient elution was carried out under the following conditions: 0-2 min., 82.5% B; 2-4 min., 82.5% to 5% B and 4-7 min. 5% B with a flow rate of 0.6 mL/min. The eluate was directly subjected to electrospray ionization under a positive ion mode using a 5500QTRAP mass spectrometer (Sciex pte. ltd., Toronto, Canada). All target molecules were scanned by selected reaction monitoring (SRM) mode.
# Eight-week-old Tax-iIEC-KO mice and control mice were started to be fed with a control diet, a 0.3% choline supplemented diet, or a 1% choline supplemented diet, and at the same time, the Tax-iIEC-KO mice and the control mice were administered with 1 mg/day of Tamoxifen for 5 consecutive days. Thereafter, the mice were dissected at 10 weeks of age.
# [1] = 0.3% choline supplemented diet, 8 to 10 weeks of age
# [2] = choline supplemented diet (0.3% or 1%) from 8 to 10 weeks of age, Tamoxifen 1 mg/day for 5 days
smiles,measurement,setting,value
C[N+](C)(C)CCO [choline],increase in liver injury markers (AST and ALT),[1],suppressed
same,onset of steatohepatitis (liver pathological images),[1],suppressed
same,concentration of betaine in the liver,0.3% choline supplemented diet,recovered
same,concentration of choline in the liver,0.3% choline supplemented diet,recovered
same,increase in liver injury markers (AST and ALT),"1% choline supplemented diet, 8 to 10 weeks of age",suppressed
same,concentration of betaine in the liver,1% choline supplemented diet,recovered
same,concentration of choline in the liver,1% choline supplemented diet,recovered
same,body weight,[2],not changed
same,small intestine length,[2],not changed

# Source: patent publication US20250049735A1, “MEDICINE FOR STEATOHEPATITIS” (The University of Tokyo, priority 2021, published 2025)
